Reference: patent US20250099475A1, “METHODS OF TREATING HYPERTENSION BY PERIODIC SUPPRESSION OF ALDOSTERONE SYNTHASE” (Mineralys Therapeutics, Inc., priority 2022, published 2025)

Test: Phase 1 parts 3 and 4: sex- and age-related effects on PK
Assay type: in vivo, human
Conditions: single 100-mg dose; not statistically significant
Procedure: Part 3 of the study evaluated the sex-related effects on the safety, tolerability, and PK of Compound A HBr. In 1 cohort of 8 healthy Caucasian women aged 20 to 35 years (inclusive), 6 participants were randomized to receive a single 100-mg dose of Compound A HBr and 2 participants were randomized to receive matching placebo. Compound A HBr or placebo was administered in the fasted state. The results were compared with those in the cohort at the same dose as in Part 1.
Part 4 of the study evaluated the age-related effects on safety, tolerability, and PK of Compound A HBr. In 1 cohort of 8 healthy Caucasian men aged 68 to 80 years, 6 participants were randomized to receive a single 100-mg dose of Compound A HBr and 2 participants were randomized to receive matching placebo. Compound A HBr or placebo were administered in the fasted state. The results were compared with those in the cohort at the same dose as in Part 1.
A linear model was used to analyze log-transformed AUC and Cmax with sex or age as fixed effects. Difference in least square means (LSM) and corresponding 90% CI were back-transformed to obtain the estimates of geometric mean ratios and their CI for females vs. males and ≥65 years vs. <65 years participants.

CC(=O)N[C@H]1CC[C@H](NC(=O)CN2CCN(c3nncc(-c4ccc(C)cc4)n3)CC2)CC1 [Compound A HBr]
AUC higher in female than in male participants: 19%
AUC lower in men aged ≥65 years vs <65 years: ~12%
Cmax higher in female than in male participants: 25%
Cmax lower in men aged ≥65 years vs <65 years: approximately 14%
